Results published in publication PMC6757289, “Design and Characterization of SGK3-PROTAC1, an Isoform Specific SGK3 Kinase PROTAC Degrader” (ACS Chemical Biology, 2019).
Read-outs that look alike come from different tables or passages of the source.

Legend:
Assay in all cases: kinase profiling panel
Type in all cases: biochemical
Settings in all cases: read-out: % Activity Remaining
[1] = target: T1, PRAK (Homo sapiens, UniProt Q8IW41)
T1 sequence (Q8IW41 1-473): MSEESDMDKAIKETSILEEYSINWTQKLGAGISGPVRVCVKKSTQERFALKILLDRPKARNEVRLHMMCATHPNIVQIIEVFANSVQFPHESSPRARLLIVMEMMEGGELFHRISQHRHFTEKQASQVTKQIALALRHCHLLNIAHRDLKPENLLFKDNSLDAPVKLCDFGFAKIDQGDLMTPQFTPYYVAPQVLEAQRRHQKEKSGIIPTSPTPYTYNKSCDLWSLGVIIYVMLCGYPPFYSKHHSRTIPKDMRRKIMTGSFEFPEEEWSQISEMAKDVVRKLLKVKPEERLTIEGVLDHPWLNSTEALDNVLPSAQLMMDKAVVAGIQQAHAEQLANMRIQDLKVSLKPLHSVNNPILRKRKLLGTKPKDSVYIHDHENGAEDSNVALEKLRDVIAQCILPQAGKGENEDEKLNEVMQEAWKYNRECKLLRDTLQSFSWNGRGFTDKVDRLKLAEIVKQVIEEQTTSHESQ
Excerpt: (§1) Protein kinase profiling against a Dundee panel of 140 protein kinases was undertaken at the International Centre for Protein Kinase Profiling. The result for each kinase was presented as a mean kinase activity of the reaction taken in triplicate relative to a control sample treated with DMSO. Assay conditions and abbreviations are available at http://www.kinase-screen.mrc.ac.uk.

[2] = target: GSK3 beta (Homo sapiens, UniProt P49841)
Chain of GSK3 beta (P49841 whole entry): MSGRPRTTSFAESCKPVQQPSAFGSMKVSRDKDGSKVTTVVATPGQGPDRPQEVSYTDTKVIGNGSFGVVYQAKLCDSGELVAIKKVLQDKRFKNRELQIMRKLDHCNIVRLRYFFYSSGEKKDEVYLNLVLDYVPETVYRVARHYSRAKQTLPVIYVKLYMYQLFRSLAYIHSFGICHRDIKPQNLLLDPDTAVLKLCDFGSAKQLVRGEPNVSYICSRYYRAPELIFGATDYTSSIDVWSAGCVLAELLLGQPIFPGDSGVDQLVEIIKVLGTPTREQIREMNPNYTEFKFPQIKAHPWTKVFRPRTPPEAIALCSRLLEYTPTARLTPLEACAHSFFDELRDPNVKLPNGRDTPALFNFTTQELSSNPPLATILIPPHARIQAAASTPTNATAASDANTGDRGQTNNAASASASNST
Excerpt: as §1

[3] = target: T2, EPH-B3 (Homo sapiens, UniProt P54753)
T2 sequence (P54753 34-998): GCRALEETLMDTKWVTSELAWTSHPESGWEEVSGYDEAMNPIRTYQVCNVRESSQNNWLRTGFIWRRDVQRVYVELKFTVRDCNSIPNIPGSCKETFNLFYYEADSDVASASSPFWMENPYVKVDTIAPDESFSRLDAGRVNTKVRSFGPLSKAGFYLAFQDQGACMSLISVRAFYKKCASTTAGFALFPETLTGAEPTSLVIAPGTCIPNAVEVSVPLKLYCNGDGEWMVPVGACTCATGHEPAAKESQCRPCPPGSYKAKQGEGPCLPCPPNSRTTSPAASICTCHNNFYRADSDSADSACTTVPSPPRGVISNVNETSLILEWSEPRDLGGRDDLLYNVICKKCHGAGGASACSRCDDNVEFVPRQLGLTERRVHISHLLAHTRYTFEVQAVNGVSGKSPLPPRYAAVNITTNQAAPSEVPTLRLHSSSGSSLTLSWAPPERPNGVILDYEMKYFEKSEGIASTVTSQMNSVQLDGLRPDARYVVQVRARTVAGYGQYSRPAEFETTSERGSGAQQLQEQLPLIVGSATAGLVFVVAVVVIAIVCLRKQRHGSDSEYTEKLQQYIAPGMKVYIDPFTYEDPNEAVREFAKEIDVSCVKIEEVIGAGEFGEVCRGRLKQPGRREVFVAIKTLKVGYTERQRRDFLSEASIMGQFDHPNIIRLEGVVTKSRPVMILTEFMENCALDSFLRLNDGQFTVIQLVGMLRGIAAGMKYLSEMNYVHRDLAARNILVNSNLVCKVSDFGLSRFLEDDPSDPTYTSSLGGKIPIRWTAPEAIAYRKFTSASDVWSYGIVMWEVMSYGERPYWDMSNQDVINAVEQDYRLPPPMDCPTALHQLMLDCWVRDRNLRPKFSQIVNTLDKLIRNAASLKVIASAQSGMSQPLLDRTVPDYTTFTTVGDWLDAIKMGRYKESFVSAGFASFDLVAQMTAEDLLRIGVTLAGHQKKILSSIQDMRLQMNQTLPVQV
Excerpt: as §1

[4] = target: PIM2 (Homo sapiens, UniProt Q9P1W9)
Chain of PIM2 (Q9P1W9 whole entry): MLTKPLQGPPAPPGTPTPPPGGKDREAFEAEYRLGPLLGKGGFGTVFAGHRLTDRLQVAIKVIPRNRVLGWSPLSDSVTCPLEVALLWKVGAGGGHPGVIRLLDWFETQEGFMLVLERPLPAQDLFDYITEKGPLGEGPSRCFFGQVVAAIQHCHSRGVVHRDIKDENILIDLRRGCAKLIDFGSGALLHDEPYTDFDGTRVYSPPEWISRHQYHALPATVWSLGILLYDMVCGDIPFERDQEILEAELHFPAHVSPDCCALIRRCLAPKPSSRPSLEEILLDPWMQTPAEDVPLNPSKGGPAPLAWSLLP
Excerpt: as §1

[5] = target: S6K1 (Homo sapiens, UniProt P23443)
Chain of S6K1 (P23443 whole entry): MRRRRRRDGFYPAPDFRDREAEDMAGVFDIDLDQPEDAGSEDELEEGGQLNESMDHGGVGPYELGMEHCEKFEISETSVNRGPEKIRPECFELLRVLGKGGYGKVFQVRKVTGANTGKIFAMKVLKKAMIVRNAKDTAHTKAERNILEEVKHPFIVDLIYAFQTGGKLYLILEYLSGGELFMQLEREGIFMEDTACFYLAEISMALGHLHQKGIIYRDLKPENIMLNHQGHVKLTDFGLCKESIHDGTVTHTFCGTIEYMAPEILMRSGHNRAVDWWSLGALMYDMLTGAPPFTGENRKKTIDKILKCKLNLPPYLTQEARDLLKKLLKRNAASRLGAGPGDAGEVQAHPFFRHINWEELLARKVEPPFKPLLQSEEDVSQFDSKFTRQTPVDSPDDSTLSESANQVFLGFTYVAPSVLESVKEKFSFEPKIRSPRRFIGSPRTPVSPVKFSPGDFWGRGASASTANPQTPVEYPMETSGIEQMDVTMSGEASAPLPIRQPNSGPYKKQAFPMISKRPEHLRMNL
Excerpt: as §1

[6] = target: PDGFRA (Homo sapiens, UniProt P16234)
Chain of PDGFRA (P16234 24-1089): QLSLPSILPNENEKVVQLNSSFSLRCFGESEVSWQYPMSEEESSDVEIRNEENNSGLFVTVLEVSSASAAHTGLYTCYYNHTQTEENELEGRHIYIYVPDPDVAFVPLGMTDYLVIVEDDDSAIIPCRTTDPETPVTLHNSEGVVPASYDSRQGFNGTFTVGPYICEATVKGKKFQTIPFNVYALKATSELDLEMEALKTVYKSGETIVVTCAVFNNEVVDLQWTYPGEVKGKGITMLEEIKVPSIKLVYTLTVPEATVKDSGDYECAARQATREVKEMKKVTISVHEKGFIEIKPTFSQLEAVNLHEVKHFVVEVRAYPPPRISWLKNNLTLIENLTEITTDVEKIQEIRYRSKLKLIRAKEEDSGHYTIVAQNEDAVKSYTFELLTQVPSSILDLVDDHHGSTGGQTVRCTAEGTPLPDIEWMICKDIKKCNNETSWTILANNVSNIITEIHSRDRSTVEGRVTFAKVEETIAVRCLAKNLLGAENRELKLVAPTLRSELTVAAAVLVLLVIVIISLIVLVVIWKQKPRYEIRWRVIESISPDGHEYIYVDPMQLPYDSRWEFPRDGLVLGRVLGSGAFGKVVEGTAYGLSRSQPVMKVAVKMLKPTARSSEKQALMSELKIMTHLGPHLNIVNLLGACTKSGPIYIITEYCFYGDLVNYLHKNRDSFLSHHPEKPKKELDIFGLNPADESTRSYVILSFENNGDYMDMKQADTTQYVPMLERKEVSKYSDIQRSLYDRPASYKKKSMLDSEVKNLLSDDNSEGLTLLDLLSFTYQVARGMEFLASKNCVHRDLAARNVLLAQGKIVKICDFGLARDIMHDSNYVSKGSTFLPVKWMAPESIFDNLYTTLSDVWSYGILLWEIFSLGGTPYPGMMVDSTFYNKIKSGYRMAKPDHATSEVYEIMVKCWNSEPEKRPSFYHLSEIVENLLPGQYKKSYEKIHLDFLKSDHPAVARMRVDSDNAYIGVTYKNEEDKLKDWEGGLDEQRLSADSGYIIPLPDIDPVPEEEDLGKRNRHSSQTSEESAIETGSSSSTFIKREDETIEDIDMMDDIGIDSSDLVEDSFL
Excerpt: as §1

[7] = target: T3, DYRK2 (Homo sapiens, UniProt Q92630)
T3 sequence (Q92630 1-601): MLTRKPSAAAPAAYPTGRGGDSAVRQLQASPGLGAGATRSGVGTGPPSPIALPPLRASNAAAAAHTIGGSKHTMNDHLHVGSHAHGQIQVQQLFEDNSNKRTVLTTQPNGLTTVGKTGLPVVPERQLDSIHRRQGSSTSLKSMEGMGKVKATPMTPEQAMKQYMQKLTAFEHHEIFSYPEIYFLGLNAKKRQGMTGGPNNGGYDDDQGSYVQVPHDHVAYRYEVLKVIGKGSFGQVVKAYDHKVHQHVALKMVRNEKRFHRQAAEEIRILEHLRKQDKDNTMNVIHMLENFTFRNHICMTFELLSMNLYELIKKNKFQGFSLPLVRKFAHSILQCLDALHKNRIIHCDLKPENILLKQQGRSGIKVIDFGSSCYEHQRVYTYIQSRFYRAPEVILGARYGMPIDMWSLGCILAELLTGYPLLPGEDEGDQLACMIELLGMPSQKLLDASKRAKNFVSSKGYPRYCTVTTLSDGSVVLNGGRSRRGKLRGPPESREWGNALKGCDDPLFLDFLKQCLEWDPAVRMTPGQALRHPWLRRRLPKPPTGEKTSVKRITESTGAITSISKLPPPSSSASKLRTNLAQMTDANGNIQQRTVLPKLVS
Excerpt: as §1

[8] = target: Aurora B (Homo sapiens, UniProt Q96GD4)
Chain of Aurora B (Q96GD4 whole entry): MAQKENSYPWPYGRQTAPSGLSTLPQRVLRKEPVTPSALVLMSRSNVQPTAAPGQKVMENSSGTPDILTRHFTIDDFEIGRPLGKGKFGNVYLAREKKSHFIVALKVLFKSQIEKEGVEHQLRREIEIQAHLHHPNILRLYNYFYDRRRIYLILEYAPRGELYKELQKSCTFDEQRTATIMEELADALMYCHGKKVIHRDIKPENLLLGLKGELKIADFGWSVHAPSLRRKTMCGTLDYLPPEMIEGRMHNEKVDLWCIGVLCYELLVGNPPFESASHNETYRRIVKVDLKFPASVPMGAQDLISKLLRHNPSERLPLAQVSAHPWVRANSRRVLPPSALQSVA
Excerpt: as §1

[9] = target: MARK3 (Homo sapiens, UniProt P27448)
Chain of MARK3 (P27448 whole entry): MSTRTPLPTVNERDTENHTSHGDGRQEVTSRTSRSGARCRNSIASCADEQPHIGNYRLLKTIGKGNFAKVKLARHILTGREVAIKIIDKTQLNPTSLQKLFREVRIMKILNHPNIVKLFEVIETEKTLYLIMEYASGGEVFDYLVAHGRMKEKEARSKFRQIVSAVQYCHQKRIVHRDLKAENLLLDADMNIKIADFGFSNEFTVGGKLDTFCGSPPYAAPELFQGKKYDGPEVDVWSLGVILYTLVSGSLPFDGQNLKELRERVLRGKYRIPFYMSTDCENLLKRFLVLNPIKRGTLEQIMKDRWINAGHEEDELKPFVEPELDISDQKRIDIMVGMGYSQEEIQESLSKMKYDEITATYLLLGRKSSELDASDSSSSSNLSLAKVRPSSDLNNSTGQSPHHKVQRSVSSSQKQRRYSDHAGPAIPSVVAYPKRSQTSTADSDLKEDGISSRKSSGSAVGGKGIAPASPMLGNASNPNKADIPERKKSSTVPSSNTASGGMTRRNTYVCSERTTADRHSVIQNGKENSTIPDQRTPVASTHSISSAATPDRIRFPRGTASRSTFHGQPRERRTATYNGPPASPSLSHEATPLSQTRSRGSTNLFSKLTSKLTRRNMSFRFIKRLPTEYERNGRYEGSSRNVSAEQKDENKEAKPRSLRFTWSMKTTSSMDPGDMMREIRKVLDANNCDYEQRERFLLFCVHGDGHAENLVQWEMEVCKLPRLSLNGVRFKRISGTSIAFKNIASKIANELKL
Excerpt: as §1

[10] = target: MEKK1 (Homo sapiens, UniProt Q13233)
Chain of MEKK1 (Q13233 whole entry): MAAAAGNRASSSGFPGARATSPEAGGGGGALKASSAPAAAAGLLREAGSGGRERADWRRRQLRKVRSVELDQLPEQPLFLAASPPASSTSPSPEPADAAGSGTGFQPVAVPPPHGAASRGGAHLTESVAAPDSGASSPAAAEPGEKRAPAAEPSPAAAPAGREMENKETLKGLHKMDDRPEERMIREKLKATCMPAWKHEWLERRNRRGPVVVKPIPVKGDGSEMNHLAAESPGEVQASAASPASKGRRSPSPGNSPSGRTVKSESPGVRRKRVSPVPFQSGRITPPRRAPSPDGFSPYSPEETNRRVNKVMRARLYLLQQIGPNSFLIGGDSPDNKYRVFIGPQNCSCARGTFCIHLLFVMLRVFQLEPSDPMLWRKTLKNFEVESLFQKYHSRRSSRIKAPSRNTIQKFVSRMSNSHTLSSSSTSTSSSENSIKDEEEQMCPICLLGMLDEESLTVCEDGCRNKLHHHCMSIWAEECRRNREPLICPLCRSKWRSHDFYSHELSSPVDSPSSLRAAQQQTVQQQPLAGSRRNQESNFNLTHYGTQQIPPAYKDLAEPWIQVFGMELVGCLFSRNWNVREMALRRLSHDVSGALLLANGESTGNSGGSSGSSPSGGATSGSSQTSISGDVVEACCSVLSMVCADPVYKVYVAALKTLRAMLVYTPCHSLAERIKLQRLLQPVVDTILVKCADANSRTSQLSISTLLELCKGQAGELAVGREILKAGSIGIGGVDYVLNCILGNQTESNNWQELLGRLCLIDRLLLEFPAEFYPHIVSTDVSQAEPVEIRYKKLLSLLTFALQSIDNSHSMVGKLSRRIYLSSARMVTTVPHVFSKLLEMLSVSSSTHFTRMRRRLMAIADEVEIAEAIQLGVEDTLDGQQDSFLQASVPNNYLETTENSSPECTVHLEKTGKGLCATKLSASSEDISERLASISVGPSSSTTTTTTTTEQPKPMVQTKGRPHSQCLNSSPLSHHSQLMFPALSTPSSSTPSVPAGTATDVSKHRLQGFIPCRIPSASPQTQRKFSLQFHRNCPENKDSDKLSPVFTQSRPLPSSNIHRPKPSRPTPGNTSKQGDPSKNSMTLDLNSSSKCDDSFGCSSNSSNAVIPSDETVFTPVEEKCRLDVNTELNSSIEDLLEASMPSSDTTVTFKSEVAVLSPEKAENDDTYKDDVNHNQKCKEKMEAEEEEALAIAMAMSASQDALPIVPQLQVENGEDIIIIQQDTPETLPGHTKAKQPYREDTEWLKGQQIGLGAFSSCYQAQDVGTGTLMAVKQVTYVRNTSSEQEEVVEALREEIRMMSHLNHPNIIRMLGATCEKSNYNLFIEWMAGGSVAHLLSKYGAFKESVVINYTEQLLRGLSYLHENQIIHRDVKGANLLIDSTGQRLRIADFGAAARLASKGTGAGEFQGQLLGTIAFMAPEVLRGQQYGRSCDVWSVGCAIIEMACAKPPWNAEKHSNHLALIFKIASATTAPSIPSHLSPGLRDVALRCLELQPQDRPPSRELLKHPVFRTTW
Excerpt: as §1

For COc1ccc(Cl)c(S(=O)(=O)Nc2ccc(-c3nc(OC[C@H]4CNCCO4)c4c(C)n[nH]c4n3)cc2)c1 [290-R, reference compound], the remaining activity at 1 µM [1] was 78%, the remaining activity at 1 µM [2] was 90% and the remaining activity at 1 µM [3] was 104%. The remaining activity at 1 µM [4] was 105%, the remaining activity at 1 µM [5] was 1% and the remaining activity at 1 µM [6] was 91%. For the same compound, the remaining activity at 1 µM [7] was 100%, the remaining activity at 1 µM [8] was 70% and the remaining activity at 1 µM [9] was 89%. It also gave a remaining activity at 1 µM [10] of 112%.
Work on Cc1ccc(F)c(S(=O)(=O)Nc2ccc(-c3nc(OC[C@H]4CNCCO4)c4cn[nH]c4n3)cc2)c1 [308-R, reference compound] yielded a remaining activity at 1 µM [1] of 86%, a remaining activity at 1 µM [2] of 92% and a remaining activity at 1 µM [3] of 64%. The remaining activity at 1 µM [4] was 127%, the remaining activity at 1 µM [5] was 1% and the remaining activity at 1 µM [6] was 115%. It also gave a remaining activity at 1 µM [7] of 74%, a remaining activity at 1 µM [8] of 115% and a remaining activity at 1 µM [9] of 103%. The remaining activity at 1 µM [10] was 115%.
Cc1ccc(F)c(S(=O)(=O)Nc2ccc(-c3nc(OC[C@H]4CN(CCCCCCOCCOCCOCC(=O)N[C@H](C(=O)N5C[C@H](O)C[C@H]5C(=O)NCc5ccc(-c6scnc6C)cc5)C(C)(C)C)CCO4)c4cn[nH]c4n3)cc2)c1 [SGK3-PROTAC1] was tested, and the remaining activity at 1 µM ([1]; 1 µM) was 115%, the remaining activity at 1 µM ([2]; 1 µM) was 108% and the remaining activity at 1 µM ([3]; 1 µM) was 92%. The remaining activity at 1 µM ([4]; 1 µM) was 98%, the remaining activity at 1 µM ([5]; 1 µM) was 19% and the remaining activity at 1 µM ([6]; 1 µM) was 101%. The remaining activity at 1 µM ([7]; 1 µM) was 102%, the remaining activity at 1 µM ([8]; 1 µM) was 93% and the remaining activity at 1 µM ([9]; 1 µM) was 98%. For the same compound, the remaining activity at 1 µM ([10]; 1 µM) was 124%.
For Cc1ccc(F)c(S(=O)(=O)Nc2ccc(-c3nc(OC[C@H]4CN(CCCCCCOCCOCCOCC(=O)N[C@H](C(=O)N5C[C@@H](O)C[C@H]5C(=O)NCc5ccc(-c6scnc6C)cc5)C(C)(C)C)CCO4)c4cn[nH]c4n3)cc2)c1 [cisSGK3-PROTAC1], the remaining activity at 1 µM ([1]; 1 µM) was 119%, the remaining activity at 1 µM ([2]; 1 µM) was 106% and the remaining activity at 1 µM ([3]; 1 µM) was 104%. The remaining activity at 1 µM ([4]; 1 µM) was 105%, the remaining activity at 1 µM ([5]; 1 µM) was 20% and the remaining activity at 1 µM ([6]; 1 µM) was 95%. For the same compound, the remaining activity at 1 µM ([7]; 1 µM) was 97%, the remaining activity at 1 µM ([8]; 1 µM) was 95% and the remaining activity at 1 µM ([9]; 1 µM) was 109%. It also gave a remaining activity at 1 µM ([10]; 1 µM) of 128%.
